For orientation: Ki means the dissociation constant of the complex between target and ligand, obtained from inhibition or displacement.

These results are taken from BindingDB's records for doi:10.1074/jbc.M112.356576 (University of Adelaide, 2012).

Each structure is given as a SMILES string.

The target of the experiment is T1, Bifunctional ligase/repressor BirA (Staphylococcus aureus, UniProt A0A3A5LBF0).
T1 sequence (A0A3A5LBF0 whole entry): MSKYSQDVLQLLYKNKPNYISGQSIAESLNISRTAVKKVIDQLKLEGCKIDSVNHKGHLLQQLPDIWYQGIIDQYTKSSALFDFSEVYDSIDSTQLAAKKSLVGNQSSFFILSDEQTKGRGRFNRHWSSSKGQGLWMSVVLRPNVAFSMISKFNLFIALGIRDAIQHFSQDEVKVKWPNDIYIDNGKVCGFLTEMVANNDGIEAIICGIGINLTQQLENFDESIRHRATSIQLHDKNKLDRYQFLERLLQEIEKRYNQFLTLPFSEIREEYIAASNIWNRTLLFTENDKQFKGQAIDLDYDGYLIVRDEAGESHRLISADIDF
The experiment can be described thus: Enzyme Inhibition Assay. The text has this:
In vitro enzyme inhibition using biotin protein ligase.
On to `Nc1ncnc2c1NCN2[C@@H]1O[C@H](Cn2cc(CCCCC[C@@H]3SCC4NC(=O)NC43)nn2)[C@@H](O)[C@H]1O` (stereo partly drawn) [Biotin triazole, 5], for which affinity was put at a Ki of 1170 nM.
As for `CC(C)(C)C(=O)OCCn1cc(CCCCC[C@@H]2SCC3NC(=O)NC32)nn1` (stereo partly drawn) [Biotin triazole, 10], the figure is over 10000 nM.
As for `O=C1NC2CS[C@@H](CCCCCc3cn(CCCCOc4ccccc4)nn3)C2N1` (stereo partly drawn) [Biotin triazole, 11], the figure is over 10000 nM.
As for `O=C1NC2CS[C@@H](CCCCCc3cn(CCCCOc4cccc5ccccc45)nn3)C2N1` (stereo partly drawn) [Biotin triazole, 12], the figure is over 10000 nM; as for `O=C1NC2CS[C@@H](CCCCCc3cn(CCCCOc4ccc5ccccc5c4)nn3)C2N1` (stereo partly drawn) [Biotin triazole, 13], 1170 nM.
Regarding `Cc1ccc2oc(=O)n(CCCCn3cc(CCCCC[C@@H]4SCC5NC(=O)NC54)nn3)c2c1` (stereo partly drawn) [Biotin triazole, 14], the affinity, expressed as Ki, was 90 nM.
To `O=C1NC2CS[C@@H](CCCCCc3cn(CCCOc4ccc5ccccc5c4)nn3)C2N1` (stereo partly drawn) [Biotin triazole, 15] belongs over 10000 nM; to `Cc1ccc2oc(=O)n(CCCn3cc(COCCC[C@@H]4SCC5NC(=O)NC54)nn3)c2c1` (stereo partly drawn) [Biotin triazole, 16], over 10000 nM.
